Data reported in patent US20020168436A1, “Decursinol or derivative thereof as analgesic agent” (priority 2000, published 2002).

Tests used:
[1] = tested on: mice administered with β-amyloid(1-42); assay: Passive avoidance test in mice given β-amyloid(1-42) into the cerebral ventricle; format: in vivo, mouse; settings: for dementia-preventive effect in passive avoidance test: FIGS. 7A and 7B
Experimental: (§1) The administration of β-amyloid(1-42) to a mouse was carried out in accordance with the method described by Laursen & Belknap(J. Pharmacol. Methods, 16, 355-357 (1986)). Specifically, 5 μl of phosphate-buffered saline containing 1.85 μg of β-amyloid(1-42) was put in a 50 μl Hamilton syringe fitted with a 26 gauge needle, the tip of the needle was inserted into the bregma of the mouse and then the β-amyloid(1-42) solution was administered thereto. Each mouse of a control group received an equal amount of β-amyloid(42-1) in place of β-amyloid(1-42). A passive avoidance test was carried out at days 1-2 (day 1: training, day 2: test) and a Y-maze test, at days 3-4 (day 3: training, day 4: test) after the administration.
In order to examine the learning and memory-retention ability of a mouse, a passive avoidance test was carried out in accordance with the method described in Song et al., J. Neurochem., 71, 875-878 (1998), as follows.
A passive avoidance case equipped with a light room and a dark room was prepared, the floor of the dark room being designed to deliver an electrical shock to a test animal. First, a mouse was put in the light room and, upon entering the dark room, it received an electrical shock at 0.25 mA for 1 sec. Twenty-four hours after the training, the mouse was put in the light room again and the time it took to enter the dark room was measured as a passive avoidance time. The maximum time was set at 300 sec., i.e., in case when the mouse took more than 300 sec. to enter the dark room, the passive avoidance time was determined to be 300 sec.
Forty 4- to 5-week old mice each weighing 20 to 25 g were divided into four groups of equal number. The Angelicae gigas Nakai extract prepared in Example 1 was dissolved in water to concentrations of 0.08% (w/v) and 0.1% (w/v), respectively, and the mice of two groups were provided with the resulting solutions instead of water for 4 weeks at a daily dose of 8 ml of the solution/mouse. The mice of the other two groups were provided with normal drinking water for 4 weeks. Thereafter, the mice of one of the two normal drinking water groups were administered into their cerebral ventricle with 1.85 μg of β-amyloid(42-1) (“control group”) and the mice of the remaining three groups, with β-amyloid(1-42) (Aβ1-42), as in Reference Example 1. Then, a passive avoidance test was carried out for each group of mice as in Reference Example 2 and the data attained were averaged for each group.
Fifty 4- to 5-week old mice each weighing 20 to 25 g were divided into five groups by equal number. Ferulic acid was dissolved in water to concentrations of 0.002 % (w/v), 0.004 % (w/v) and 0.006 % (w/v), respectively, and the mice of three groups were provided with the resulting solutions instead of water for 4 weeks at a daily dose of 8 ml of the solution/mouse. The mice of the other two groups were provided with normal drinking water for 4 weeks. Thereafter, the mice of one of two normal drinking water groups were administered into their cerebral ventricle with 1.85 μg of β-(42-1) (“control group”) and the mice of the remaining four groups, with β-amyloid(1-42) (Aβ1-42), as in Reference Example 1. Then, a passive avoidance test was carried out for each group of mice as in Reference Example 2 and the data attained were averaged for each group.
Forty 4- to 5-week old mice each weighing 20 to 25 g were divided into four groups of equal number. […]

[2] = tested on: mice administered with β-amyloid(1-42); assay: Y-maze test in mice given β-amyloid(1-42) into the cerebral ventricle; format: in vivo, mouse; settings: for alternation behavior (%): compared with the group given β-amyloid(1-42) only
Experimental: as §1
Spontaneous alternation behavior of a mouse was examined by a Y-maze test in accordance with the method described in Starter et al., Psychopharmacology, 94, 491-495 (1988) as follows.
The Y-maze consisted of three arms shaped like Y. A test mouse was placed in one of the arms such that it faced the arm's terminal and allowed to roan freely through the three arms for […]. The number of alternation was determined by counting the number of occasions the mouse passed the three arms consecutively. Spontaneous alternation behavior was determined as the percentage of the alternation number based on the total number of arm entries.
Further, Y-maze tests were carried out employing the above-prepared mice as in Reference Example 3.
Forty 4- to 5-week old mice each weighing 20 to 25 g were divided into four groups of equal number. Decursinol was dissolved in corn oil, mixed with a mouse fodder, and the mice of two groups were provided with the resulting fodder for 4 weeks at a daily dose of 7.5 mg decursinol/kg or 15 mg decursinol/kg. The mice of the other two groups were provided with a normal mouse fodder containing an equal amount of corn oil as above for 4 weeks. Thereafter, the mice of one of the two normal fodder groups were administered, into their cerebral ventricle, with 1.85 μg of β-(42-1) (“control group”) and the mice of the remaining three groups, with β-amyloid(1-42) (Aβ1-42), as in Reference Example 1. Then, a passive avoidance test and a Y-maze test were carried out for each group of mice as in Reference Examples 2 and 3, respectively, and the data attained were averaged for each group.

OX-42 = assay: Immunohistochemical staining of OX-42 in pyriform cortex and amygdaloid nucleus; format: in vivo, mouse; settings: 0.006% (w/v) in drinking water for 4 weeks; 1 day after β-amyloid(1-42); compared with β-amyloid(1-42) only; FIGS. 8c and 8f
Experimental: 4- to 5-week old mice each weighing 20 to 25 g was divided into three groups. Ferulic acid was dissolved in water to a concentration of 0.006% (w/v), and the mice of one group were provided with the resulting solution instead of water for 4 weeks. The mice of other two groups were provided with normal drinking water for 4 weeks. Thereafter, the mice of one of two normal drinking water groups were administered, into their cerebral ventricle, with 1.85 μg of β-amyloid(42-1) (“control group”) and the mice of the remaining two groups, with β-amyloid(1-42) (Aβ1-42), as in Reference Example 1.
One day after the administration of β-amyloid, each of the mice was anesthetized with sodium pentobarbital and its abdomen was incised. The mouse was fixed by passing 4% paraformaldehyde through its left ventricle and its brain was excised.
In accordance with the method described in Cho et al., J. Comp. Neurol., 369: 264-276(1996), a section was prepared from the excised brain and immunohistochemical staining was carried out in order to stain […] in the pyriform cortex and the amygdaloid nucleus by employing 1:500 dilution of anti-OX-42 antibody (Halan (Sera-Lab)).

[3] = tested on: choline acetyltransferase (ChAT); assay: Immunohistochemical staining of ChAT in septal nucleus; format: in vivo, mouse; settings: 0.006% (w/v) in drinking water for 4 weeks; 5 days after β-amyloid(1-42); FIG. 9c
Experimental: Three groups of mice were administered with ferulic acid and/or β-amyloid in accordance with the method of (1). 5 days after the administration of β-amyloid, immunohistochemical staining was carried out according to the method of (1) except for employing 1:750 dilution of anti-choline-acetyltransferase (ChAT) antibody (Chemicon) in order to stain ChAT, an enzyme for acetylcholine synthesis, in the septal nucleus wherein acetylcholine neurons are distributed.

[4] = tested on: primary mouse cortical culture; assay: β-amyloid(1-42)-induced leakage of lactate dehydrogenase (LDH) from cultured neurons; format: cell-based; settings: 100 μM, 30 minutes before 25 μM β-amyloid(1-42); 24 and 48 hours; compared with β-amyloid(1-42) group; FIG. 10
Experimental: The culture of mouse cerebral neurons was divided into three groups. Neurons of one group received no treatment (control group). […] The degree of damage in neurons was determined by measuring the concentration of lactate dehydrogenase (LDH), which was released from the damaged or disrupted neurons into the culture medium, in accordance with the method of Wie et al. Samples of the culture medium were taken at 24 and 48 hours after the administration of β-amyloid(1-42), respectively, and their LDH concentrations were measured with a microplate reader.

Compound | decrease in the passive avoidance response time due to β-amyloid(1-42) ([1]; 7.5 or 15 mg/kg daily in fodder for 4 weeks, FIG. 6A) | dementia-preventive effect in passive avoidance test ([1]; alone in a low amount: 2 mg/kg or 3 mg/kg decursinol) | number of arm entries (spontaneous movement) ([2]; 7.5 or 15 mg/kg daily in fodder for 4 weeks, FIG. 6C) | alternation behavior (%) ([2]; 7.5 or 15 mg/kg daily in fodder for 4 weeks, FIG. 6B) | decrease in the passive avoidance response time ([1]; 0.002, 0.004 and 0.006% (w/v) in drinking water for 4 weeks before β-amyloid(1-42), FIG. 3A) | passive avoidance response time ([1]; 0.006% (w/v) in drinking water for 1, 2, 3 and 4 weeks, FIG. 3B) | dementia-preventive effect in passive avoidance test ([1]; alone in a low amount: 0.002% or 0.003% (w/v) ferulic acid) | number of arm entries (spontaneous movement) ([2]; 0.006% (w/v) for 1 to 4 weeks, FIG. 4B) | alternation behavior (%) ([2]; 0.006% (w/v) for 1 to 4 weeks, FIG. 4A) | OX-42 staining (OX-42) | ChAT staining [3] | LDH concentration in culture medium [4]
CC1(C)Oc2cc3oc(=O)ccc3cc2C[C@@H]1O [decursinol] | prevented | no dementia-preventive effect | nearly the same for all groups | higher and increased dose-dependently | – | – | – | – | – | – | – | –
COc1cc(/C=C/C(=O)O)ccc1O [ferulic acid] | – | – | – | – | prevented dose-dependently | becomes increasingly higher with the period of administration | no dementia-preventive effect | nearly the same for all groups | higher and increased in proportion to the period of administration | much less pronounced | the decrease was suppressed | much lower
